Laboratory results published in patent US9725445B2, “Cycloalkyl nitrile pyrazolo pyridones as Janus kinase inhibitors” (Merck Sharp & Dohme Corp., priority 2013, dated 2017).

These molecules were tested against JAK1 (Homo sapiens (Human), UniProt P23458) (assay: Jak biochemical HTRF assay, JAK1). Conditions: HTRF biochemical assay, recombinant GST-tagged catalytic domain; read-out: JAK1 IC50.
Chain of JAK1 (P23458 875-1153): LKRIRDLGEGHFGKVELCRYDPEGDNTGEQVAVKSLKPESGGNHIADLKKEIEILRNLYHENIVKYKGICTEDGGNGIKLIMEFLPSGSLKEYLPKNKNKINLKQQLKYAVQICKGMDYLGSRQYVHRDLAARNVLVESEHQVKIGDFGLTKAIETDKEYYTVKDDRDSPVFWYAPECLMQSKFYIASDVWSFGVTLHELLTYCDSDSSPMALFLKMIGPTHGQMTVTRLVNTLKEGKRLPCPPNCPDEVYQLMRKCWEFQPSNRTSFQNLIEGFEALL
Experimental: Jak Biochemical HTRF Assay Protocol
The ability of compounds to inhibit the activity of JAK1, JAK2, JAK3, and Tyk2 was measured using a recombinant purified GST-tagged catalytic domain for each enzyme (Invitrogen JAK1 #M4290, JAK2 #M4290, JAK3 #M4290, Tyk2 #M4290) in an HTRF format biochemical assay. […] The basic assay protocol is as follows: First, 250 nL of diluted compounds in DMSO were dispensed into the wells of a dry 384-well Black plate (Greiner #781076) using a Labcyte Echo 555 acoustic dispenser. Subsequent reagent additions employed an Agilent Bravo. […] After equilibration, 2 μL of 10×ATP in 1× assay buffer was added to initiate the kinase reaction and the plates were shaken and then incubated at room temperature for 120 minutes. […] Plates were shaken and centrifuged and then incubated 60 minutes at room temperature and then read on a Perkin Elmer Envision (λex=337 nm, λem=665 and 615 nm, TRF delay time=20 μs). HTRF signal=10,000*665 nm reading/615 nm reading. After normalization to untreated controls, the percent inhibition of the HTRF signal at each compound concentration was calculated. The plot of percent inhibition versus the log of compound concentration was fit with a 4-parameter dose response equation to calculate IC50 values.
Final Reaction Conditions were:
Examples of the instant invention were evaluated in JAK1 and JAK2 in vitro binding assays.
`N#C[C@H]1CCCC[C@@H]1n1nc(Nc2ccc3c(c2)C(O)(CO)CCS3(=O)=O)c2c(=O)[nH]ccc21` (stereo partly drawn) [Example 3-48, (1S,2S)-2-(3-{[4-hydroxy-4-(hydroxymethyl)-1,1-dioxido-3,4-dihydro-2H-thiochromen-6-yl]amino}-4-oxo-4,5-dihydro-1H-pyrazolo[4,3-c]pyridin-1-yl)cyclohexanecarbonitrile] showed an IC50 of 18 nM. With `N#C[C@H]1CCCC[C@@H]1n1nc(Nc2ccc3c(c2)CN(C2CCOCC2)S3(=O)=O)c2c(=O)[nH]ccc21` [Example 15-44, (1S,2S)-2-(3-{[1,1-dioxido-2-(tetrahydro-2H-pyran-4-yl)-2,3-dihydro-1,2-benzisothiazol-5-yl]amino}-4-oxo-4,5-dihydro-1H-pyrazolo[4,3-c]pyridin-1-yl)cyclohexanecarbonitrile] the IC50 was 0.057 nM. `CC(C)C(c1ccc(Nc2nn([C@H]3CCCC[C@@H]3C#N)c3cc[nH]c(=O)c23)cc1)n1nccn1` (single isomer, unassigned) [Example 15-30, (1S,2S)-2-[3-({4-[(1S or 1R)-2-methyl-1-(2H-1,2,3-triazol-2-yl)propyl]phenyl}amino)-4-oxo-4,5-dihydro-1H-pyrazolo[4,3-c]pyridin-1-yl]cyclohexanecarbonitrile] gave an IC50 of 0.36 nM. `N#C[C@H]1CCCC[C@@H]1n1nc(Nc2ccc3c(c2)CN(CC2CC2)C3)c2c(=O)[nH]ccc21` [Example 3-77, (1S,2S)-2-(3-{[2-(cyclopropylmethyl)-2,3-dihydro-1H-isoindol-5-yl]amino}-4-oxo-4,5-dihydro-1H-pyrazolo[4,3-c]pyridin-1-yl)cyclohexanecarbonitrile] was tested, and the IC50 was 0.52 nM. `CC1(C)C(O)c2cc(Nc3nn([C@H]4CCCC[C@@H]4C#N)c4cc[nH]c(=O)c34)ccc2S1(=O)=O` (single isomer, unassigned) [Example 3-173, (1S,2S)-2-(3-{[(3R or 3S)-3-hydroxy-2,2-dimethyl-1,1-dioxido-2,3-dihydro-1-benzothiophen-5-yl]amino}-4-oxo-4,5-dihydro-1H-pyrazolo[4,3-c]pyridin-1-yl)cyclohexanecarbonitrile] gave an IC50 of 0.094 nM. `N#C[C@H]1CCCC[C@@H]1n1nc(Nc2cccc(CNC(=O)c3cnco3)c2)c2c(=O)[nH]ccc21` [Example 3-12, N-[3-({1-[(1S,2S)-2-cyanocyclohexyl]-4-oxo-4,5-dihydro-1H-pyrazolo[4,3-c]pyridin-3-yl}amino)benzyl]-1,3-oxazole-5-carboxamide] showed an IC50 of 0.31 nM. `N#C[C@H]1CCCC[C@@H]1n1nc(Nc2cccc(CN)c2)c2c(=O)[nH]ccc21` [Example 6-1, (1S,2S)-2-(3-((3-(Aminomethyl)phenyl)amino)-4-oxo-4,5-dihydro-1H-pyrazolo[4,3-c]pyridin-1-yl)cyclohexanecarbonitrile] gave an IC50 of 1.5 nM. Molecule `CC(C)(C)OC(=O)CCN1Cc2ccc(Nc3nn([C@H]4CCCC[C@@H]4C#N)c4cc[nH]c(=O)c34)cc2C1` [Example 3-163, tert-butyl 3-[5-({1-[(1S,2S)-2-cyanocyclohexyl]-4-oxo-4,5-dihydro-1H-pyrazolo[4,3-c]pyridin-3-yl}amino)-1,3-dihydro-2H-isoindol-2-yl]propanoate] has an IC50 of 0.49 nM. For `C[C@H](N[C@@H]1CC[C@H](n2nc(Nc3ccc(C(F)(F)F)cc3)c3c(=O)[nH]ccc32)[C@@H](C#N)C1)C1CC1` [Example 5-11, (1S,2S,5R)-5-(((S)-1-cyclopropylethyl)amino)-2-(4-oxo-3-((4-(trifluoromethyl)phenyl)amino)-4,5-dihydro-1H-pyrazolo[4,3-c]pyridin-1-yl)cyclohexanecarbonitrile], the IC50 was 3 nM. `N#C[C@H]1CCCC[C@@H]1n1nc(Nc2ccc(C3(C(F)(F)F)CCCN3)cc2)c2c(=O)[nH]ccc21` (single isomer, unassigned) [Example 15-61, (1S,2S)-2-[4-oxo-3-({4-[(2R or 2S)-2-(trifluoromethyl)pyrrolidin-2-yl]phenyl}amino)-4,5-dihydro-1H-pyrazolo[4,3-c]pyridin-1-yl]cyclohexanecarbonitrile] showed an IC50 of 0.14 nM. Molecule `CC(c1ccc(Nc2nn([C@H]3CCCC[C@@H]3C#N)c3cc[nH]c(=O)c23)cc1)n1ccnn1` (single isomer, unassigned) [Example 15-42, (1S,2S)-2-[4-oxo-3-({4-[(1S or 1R)-1-(1H-1,2,3-triazol-1-yl)ethyl]phenyl}amino)-4,5-dihydro-1H-pyrazolo[4,3-c]pyridin-1-yl]cyclohexanecarbonitrile] has an IC50 of 0.15 nM. `CC(C)OC(=O)C(C)(C)C(O)(c1ccc(Nc2nn([C@H]3CCCC[C@@H]3C#N)c3cc[nH]c(=O)c23)cc1)C(F)(F)F` (single isomer, unassigned) [Example 3-119, (R or S) Isopropyl 3-(4-((1-((1S,2S)-2-cyanocyclohexyl)-4-oxo-4,5-dihydro-1H-pyrazolo[4,3-c]pyridin-3-yl)amino)phenyl)-4,4,4-trifluoro-3-hydroxy-2,2-dimethylbutanoate] showed an IC50 of 5.3 nM. Work on `Cc1cc(Nc2nn([C@H]3CCCC[C@@H]3C#N)c3cc[nH]c(=O)c23)ccc1C(C(C)C)n1nccn1` (single isomer, unassigned) [Example 15-35, (1S,2S)-2-[3-({3-methyl-4-[(1S or 1R)-2-methyl-1-(2H-1,2,3-triazol-2-yl)propyl]phenyl}amino)-4-oxo-4,5-dihydro-1H-pyrazolo[4,3-c]pyridin-1-yl]cyclohexanecarbonitrile] yielded an IC50 of 1.2 nM. With `CC(C)N1Cc2cc(Nc3nn([C@H]4CCCC[C@@H]4C#N)c4cc[nH]c(=O)c34)ccc2C1=O` [Example 3-153, (1S,2S)-2-(3-{[2-(1-methylethyl)-1-oxo-2,3-dihydro-1H-isoindol-5-yl]amino}-4-oxo-4,5-dihydro-1H-pyrazolo[4,3-c]pyridin-1-yl)cyclohexanecarbonitrile] the IC50 was 0.057 nM. In the case of `CC(C)(C)N1Cc2cc(Nc3nn([C@@H]4CCCCC[C@H]4C#N)c4cc[nH]c(=O)c34)ccc2S1(=O)=O` (single isomer, unassigned) [Example 3-177, (1R,2R or 1S,2S)-2-{3-[(2-tert-butyl-1,1-dioxido-2,3-dihydro-1,2-benzisothiazol-5-yl)amino]-4-oxo-4,5-dihydro-1H-pyrazolo[4,3-c]pyridin-1-yl}cycloheptanecarbonitrile], the IC50 is reported as 0.046 nM. For `N#C[C@H]1CCCC[C@@H]1n1nc(Nc2ccc3c(c2)CC2(CC2)C3(O)C(F)(F)F)c2c(=O)[nH]ccc21` (single isomer, unassigned) [Example 3-124, (1S,2S)-2-(3-(((R or S)-1′-hydroxy-1′-(trifluoromethyl)-1′,3′-dihydrospiro[cyclopropane-1,2′-inden]-5′-yl)amino)-4-oxo-4,5-dihydro-1H-pyrazolo[4,3-c]pyridin-1-yl)cyclohexanecarbonitrile], the IC50 was 0.23 nM. Work on `N#C[C@H]1CCCC[C@@H]1n1nc(Nc2ccc([C@]3(O)CC[C@@H](C(=O)O)CC3)cc2)c2c(=O)[nH]ccc21` (racemic) [Example 17-1, (1R,4S and 1S,4R)-4-(4-(1-((1S,2S)-2-Cyanocyclohexyl)-4-oxo-4,5-dihydro-1H-pyrazolo[4,3-c]pyridin-3-ylamino)phenyl)-4-hydroxycyclohexanecarboxylic acid] yielded an IC50 of 0.095 nM. In the case of `CN(C)C(c1ccc(Nc2nn([C@H]3CCCC[C@@H]3C#N)c3cc[nH]c(=O)c23)cc1)C(F)(F)F` (single isomer, unassigned) [Example 9-3, (1S,2S)-2-(3-(4-((S or R)-1-(Dimethylamino)-2,2,2-trifluoroethyl)phenylamino)-4-oxo-4,5-dihydropyrazolo[4,3-c]pyridin-1-yl)cyclohexanecarbonitrile], the IC50 is reported as 0.16 nM.
